From ChEMBL document CHEMBL1201862, “PubChem BioAssay data set” (2004)
The source made the active and inactive calls.

Legend:
[1] = target: T1, Tyrosine-protein phosphatase non-receptor type 22 (Homo sapiens, UniProt Q9Y2R2); assay: SAR LYP1 Fluorescent Assay using OMFP substrate for In Vitro dose response studies - Set 3. [Related pubchem assays (depositor defined):AID1779, AID1784, AID2140, AID2686]; assay type: functional
T1 sequence (Q9Y2R2 whole entry): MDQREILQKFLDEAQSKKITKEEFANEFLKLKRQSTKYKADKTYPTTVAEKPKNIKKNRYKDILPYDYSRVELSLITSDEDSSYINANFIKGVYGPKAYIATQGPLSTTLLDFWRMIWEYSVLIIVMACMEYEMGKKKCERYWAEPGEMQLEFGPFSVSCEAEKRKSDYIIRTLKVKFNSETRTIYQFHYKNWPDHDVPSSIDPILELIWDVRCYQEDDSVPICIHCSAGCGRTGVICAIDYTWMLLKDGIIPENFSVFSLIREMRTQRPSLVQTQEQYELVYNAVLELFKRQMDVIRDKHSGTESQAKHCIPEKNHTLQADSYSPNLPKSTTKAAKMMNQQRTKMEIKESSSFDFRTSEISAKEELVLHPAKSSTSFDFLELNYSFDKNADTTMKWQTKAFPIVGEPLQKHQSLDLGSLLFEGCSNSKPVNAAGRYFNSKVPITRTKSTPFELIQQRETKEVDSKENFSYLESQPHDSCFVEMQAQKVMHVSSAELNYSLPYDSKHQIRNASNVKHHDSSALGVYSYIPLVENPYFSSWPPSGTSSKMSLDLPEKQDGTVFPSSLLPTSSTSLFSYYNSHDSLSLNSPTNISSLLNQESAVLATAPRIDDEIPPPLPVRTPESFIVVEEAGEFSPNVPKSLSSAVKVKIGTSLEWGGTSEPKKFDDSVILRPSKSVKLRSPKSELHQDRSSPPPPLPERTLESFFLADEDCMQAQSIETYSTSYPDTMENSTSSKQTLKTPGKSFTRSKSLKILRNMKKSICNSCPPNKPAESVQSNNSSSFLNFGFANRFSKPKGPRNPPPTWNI

[2] = target: T1, Tyrosine-protein phosphatase non-receptor type 22; assay type: functional
[3] = target: T2, Small ubiquitin-related modifier 1 (Homo sapiens, UniProt P63165); assay: SUMO1 protein-protein binding blockers, potency – biochemical, FRET, dose response (AID 624383); assay type: functional; details: read-out: IC50_Mean
[4] = target: T1, Tyrosine-protein phosphatase non-receptor type 22; assay: LYP1 Fluorescent Assay using OMFP substrate for In Vitro dose response studies. [Related pubchem assays (depositor defined):AID1779, AID1784, AID435024]
[5] = target: T3, Tyrosine-protein phosphatase non-receptor type 7 (Homo sapiens, UniProt P35236); assay: HTS HePTP Fluorescent Assay using OMFP substrate for In Vitro dose response studies. [Related pubchem assays (depositor defined):AID1059, AID1077, AID1784, AID2068, AID2085, AID435032, AID521]; assay type: functional
T3 sequence (P35236 whole entry): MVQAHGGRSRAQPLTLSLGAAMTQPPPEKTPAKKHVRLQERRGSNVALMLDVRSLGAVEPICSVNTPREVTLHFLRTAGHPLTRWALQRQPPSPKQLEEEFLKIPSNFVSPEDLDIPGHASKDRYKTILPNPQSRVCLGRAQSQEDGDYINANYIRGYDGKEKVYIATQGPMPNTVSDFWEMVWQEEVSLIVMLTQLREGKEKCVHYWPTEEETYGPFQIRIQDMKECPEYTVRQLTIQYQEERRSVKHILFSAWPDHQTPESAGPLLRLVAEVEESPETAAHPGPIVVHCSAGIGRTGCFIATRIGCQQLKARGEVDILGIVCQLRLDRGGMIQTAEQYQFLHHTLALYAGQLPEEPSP

[6] = target: Tyrosine-protein phosphatase non-receptor type 12 (Homo sapiens, UniProt Q05209); assay: SAR Selectivity Analysis of small molecule inhibitors of PEST using pCAP in a fluorescence assay. [Related pubchem assays (depositor defined):AID1779, AID1784, AID2135]; assay type: functional
[7] = target: Induced myeloid leukemia cell differentiation protein Mcl-1 (Homo sapiens, UniProt Q07820); assay: blockers of MCL1 binding to BIM peptide – biochemical, fluorescence polarization, BIM-BH3 peptide, 1536-well, dose response (AID 2217)
[8] = target: T4, Small ubiquitin-related modifier 2 (Homo sapiens, UniProt P61956); assay: disruption of SUMO2 interaction with SIM peptide – biochemical, fluorescence polarization, uHTS hits, selectivity assay for SUMO1 interaction inhibitor project, dose response (AID 624385); assay type: functional; details: read-out: IC50_Mean
[9] = target: Envelope glycoprotein gp160 (Human immunodeficiency virus 1, UniProt Q6QLK5); assay: cell-free HIV fusion peptide-binding blockers – biochemical, uHTS, fluorescence dequenching, […] (AID 1986)
SUMO E1/E2 = SUMO E1/E2 (Homo sapiens, UniProt P63279+Q9UBE0+Q9UBT2); assay: SAR analysis of SUMOylation using HTRF in an in-Vitro dose response assay. [Related pubchem assays (depositor defined):AID2006, AID2011, AID2018, AID2069, AID2658]; assay type: functional
Genome polyprotein = Genome polyprotein (dengue virus type 2, UniProt P29990); assay: flavivirus cap methylation enzyme inhibition – biochemical, confirmation dose response, primary screen (AID 588689); assay type: functional
Bcl-2-like protein 1 = Bcl-2-like protein 1 (Homo sapiens, UniProt Q07817); assay: blockers of BCLXL peptide binding – biochemical, fluorescence polarization, 1536-well, selectivity assay for MCL1 inhibitor project, dose response (AID 2218)
Nonstructural protein 1 = Nonstructural protein 1 (Influenza A virus, UniProt Q194T2); assay type: functional, Influenza A virus (A/California/07/2009(H1N1))
[10] = target: T4, Small ubiquitin-related modifier 2; assay: SUMO2 binding disruption by SUMO1 hits – biochemical, FRET, human SUMO2, uHTS hits, selectivity assay for SUMO1 interaction inhibitor project, dose response (AID 624384); assay type: functional; details: read-out: IC50_Mean
[11] = target: T1, Tyrosine-protein phosphatase non-receptor type 22; assay type: functional; remark: listed apart in the source
[12] = target: T3, Tyrosine-protein phosphatase non-receptor type 7; assay type: functional
[13] = target: T1, Tyrosine-protein phosphatase non-receptor type 22; assay: PTPN22 lymphoid phosphatase activity blockers – biochemical, fluorescence intensity, uHTS (AID 1779)
[14] = target: T2, Small ubiquitin-related modifier 1; assay: SUMO1 protein interaction blockers, potency – biochemical, fluorescence polarization, uHTS hits, dose response (AID 624382); assay type: functional; details: read-out: IC50_Mean
[15] = target: T3, Tyrosine-protein phosphatase non-receptor type 7; assay: inhibition of hematopoietic tyrosine phosphatase HePTP – biochemical, set 2, SAR follow-up (AID 449736); assay type: functional
[16] = target: Eukaryotic translation initiation factor 4E (Mus musculus, UniProt P63073); assay: blockers of eIF4G binding by eIF4E – biochemical, TR-FRET, dose response (AID 855); assay type: functional;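 note: potency for disrupting eIF4E binding to eIF4GI seen as loss of FRET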
[17] = target: T1, Tyrosine-protein phosphatase non-receptor type 22; assay: PubChem AID 2135
[18] = target: T1, Tyrosine-protein phosphatase non-receptor type 22; assay: PubChem AID 2140
[19] = target: T1, Tyrosine-protein phosphatase non-receptor type 22; assay: SAR LYP1 Fluorescent Assay using pCAP substrate for In Vitro dose response studies - Set 2. [Related pubchem assays (depositor defined):AID1779, AID1784, AID2135, AID449727]; assay type: functional
[20] = target: T1, Tyrosine-protein phosphatase non-receptor type 22; assay: SAR LYP1 Fluorescent Assay using OMFP substrate for In Vitro dose response studies - Set 2. [Related pubchem assays (depositor defined):AID1779, AID1784, AID2140, AID449726, AID488869]; assay type: functional

T4 sequence (P61956 whole entry, the tested form may be a part): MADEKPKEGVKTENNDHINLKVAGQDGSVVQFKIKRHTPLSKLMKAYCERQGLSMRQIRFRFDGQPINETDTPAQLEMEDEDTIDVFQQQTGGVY
T2 sequence (P63165 whole entry): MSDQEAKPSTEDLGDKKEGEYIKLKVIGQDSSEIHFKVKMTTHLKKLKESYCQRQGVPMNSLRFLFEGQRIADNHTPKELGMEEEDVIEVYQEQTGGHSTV
Chain of SUMO E1/E2 (Q9UBE0 whole entry): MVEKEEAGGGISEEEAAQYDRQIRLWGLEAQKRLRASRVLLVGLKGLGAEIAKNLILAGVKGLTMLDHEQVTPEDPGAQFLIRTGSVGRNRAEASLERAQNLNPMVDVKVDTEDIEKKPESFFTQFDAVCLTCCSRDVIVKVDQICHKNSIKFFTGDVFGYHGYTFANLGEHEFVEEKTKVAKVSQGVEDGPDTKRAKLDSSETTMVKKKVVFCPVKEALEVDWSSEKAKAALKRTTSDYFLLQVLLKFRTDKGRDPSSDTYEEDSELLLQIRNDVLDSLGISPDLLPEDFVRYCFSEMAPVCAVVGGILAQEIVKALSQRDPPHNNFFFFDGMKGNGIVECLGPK
Chain of SUMO E1/E2 (Q9UBT2 whole entry): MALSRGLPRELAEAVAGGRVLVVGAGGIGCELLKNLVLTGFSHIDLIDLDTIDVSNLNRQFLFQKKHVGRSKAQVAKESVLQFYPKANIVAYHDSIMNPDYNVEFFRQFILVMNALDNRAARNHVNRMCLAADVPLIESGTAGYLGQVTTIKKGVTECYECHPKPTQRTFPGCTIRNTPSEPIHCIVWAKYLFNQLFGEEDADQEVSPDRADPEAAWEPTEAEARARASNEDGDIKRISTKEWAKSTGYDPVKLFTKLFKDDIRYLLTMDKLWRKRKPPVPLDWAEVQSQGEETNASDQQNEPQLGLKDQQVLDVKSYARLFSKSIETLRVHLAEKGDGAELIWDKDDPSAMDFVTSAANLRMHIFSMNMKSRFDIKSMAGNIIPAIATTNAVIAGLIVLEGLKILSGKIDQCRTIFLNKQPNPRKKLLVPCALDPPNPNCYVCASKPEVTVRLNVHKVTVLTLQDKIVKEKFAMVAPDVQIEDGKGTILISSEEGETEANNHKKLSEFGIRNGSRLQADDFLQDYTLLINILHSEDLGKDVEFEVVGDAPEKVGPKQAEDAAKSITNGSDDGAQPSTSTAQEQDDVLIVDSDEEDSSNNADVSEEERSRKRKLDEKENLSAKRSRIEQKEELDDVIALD
Chain of SUMO E1/E2 (P63279 whole entry): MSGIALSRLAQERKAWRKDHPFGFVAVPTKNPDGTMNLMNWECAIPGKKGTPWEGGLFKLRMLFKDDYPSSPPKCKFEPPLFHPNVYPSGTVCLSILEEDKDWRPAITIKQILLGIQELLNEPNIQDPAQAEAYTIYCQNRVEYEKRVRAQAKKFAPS
Chain of Genome polyprotein (P29990 2492-3391 limits assumed): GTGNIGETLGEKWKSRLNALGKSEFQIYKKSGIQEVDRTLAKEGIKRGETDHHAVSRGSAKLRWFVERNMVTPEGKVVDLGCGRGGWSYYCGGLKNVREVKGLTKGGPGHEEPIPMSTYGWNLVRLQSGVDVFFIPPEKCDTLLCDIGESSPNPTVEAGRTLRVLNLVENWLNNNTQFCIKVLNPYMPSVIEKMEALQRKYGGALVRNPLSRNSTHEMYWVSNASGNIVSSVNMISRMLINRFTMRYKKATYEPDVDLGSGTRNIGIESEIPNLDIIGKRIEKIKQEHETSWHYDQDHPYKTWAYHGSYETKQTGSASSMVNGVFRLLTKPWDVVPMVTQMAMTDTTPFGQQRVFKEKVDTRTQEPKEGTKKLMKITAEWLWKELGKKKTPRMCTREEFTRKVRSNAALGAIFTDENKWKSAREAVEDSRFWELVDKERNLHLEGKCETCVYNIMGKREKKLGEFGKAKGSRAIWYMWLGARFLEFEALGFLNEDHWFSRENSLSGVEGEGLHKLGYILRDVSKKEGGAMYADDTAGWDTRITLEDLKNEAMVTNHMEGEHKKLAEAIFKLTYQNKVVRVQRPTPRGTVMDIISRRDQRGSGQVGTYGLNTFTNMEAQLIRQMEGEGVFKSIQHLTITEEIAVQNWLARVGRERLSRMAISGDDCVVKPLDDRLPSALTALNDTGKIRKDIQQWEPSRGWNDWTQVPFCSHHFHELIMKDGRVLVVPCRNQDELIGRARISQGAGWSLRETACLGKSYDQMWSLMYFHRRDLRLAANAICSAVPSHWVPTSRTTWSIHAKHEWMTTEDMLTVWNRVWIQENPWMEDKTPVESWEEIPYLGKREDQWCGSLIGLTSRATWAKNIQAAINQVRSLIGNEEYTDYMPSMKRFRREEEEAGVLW
Chain of Envelope glycoprotein gp160 (Q6QLK5 whole entry, the tested form may be a part): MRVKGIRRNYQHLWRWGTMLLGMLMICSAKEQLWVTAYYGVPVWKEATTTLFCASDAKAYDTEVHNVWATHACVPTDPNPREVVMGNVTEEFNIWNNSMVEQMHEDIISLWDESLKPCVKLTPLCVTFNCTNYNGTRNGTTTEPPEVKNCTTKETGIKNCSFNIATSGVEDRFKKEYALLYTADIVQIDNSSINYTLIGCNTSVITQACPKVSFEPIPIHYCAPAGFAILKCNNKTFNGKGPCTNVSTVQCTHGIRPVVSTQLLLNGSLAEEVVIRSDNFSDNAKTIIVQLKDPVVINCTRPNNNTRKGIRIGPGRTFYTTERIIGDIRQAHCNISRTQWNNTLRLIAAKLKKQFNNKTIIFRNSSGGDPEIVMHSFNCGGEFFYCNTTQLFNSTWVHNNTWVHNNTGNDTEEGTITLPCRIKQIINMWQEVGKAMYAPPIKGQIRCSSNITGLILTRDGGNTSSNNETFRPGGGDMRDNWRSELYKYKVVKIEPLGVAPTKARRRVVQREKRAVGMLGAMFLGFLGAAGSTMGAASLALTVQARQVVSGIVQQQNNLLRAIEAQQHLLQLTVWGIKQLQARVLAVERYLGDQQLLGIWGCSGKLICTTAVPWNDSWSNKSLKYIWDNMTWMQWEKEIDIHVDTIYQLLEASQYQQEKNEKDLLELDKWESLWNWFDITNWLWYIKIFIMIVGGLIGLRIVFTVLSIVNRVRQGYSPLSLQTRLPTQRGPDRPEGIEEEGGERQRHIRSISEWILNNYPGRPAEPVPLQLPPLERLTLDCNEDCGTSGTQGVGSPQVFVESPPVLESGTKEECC
Chain of Eukaryotic translation initiation factor 4E (P63073 whole entry): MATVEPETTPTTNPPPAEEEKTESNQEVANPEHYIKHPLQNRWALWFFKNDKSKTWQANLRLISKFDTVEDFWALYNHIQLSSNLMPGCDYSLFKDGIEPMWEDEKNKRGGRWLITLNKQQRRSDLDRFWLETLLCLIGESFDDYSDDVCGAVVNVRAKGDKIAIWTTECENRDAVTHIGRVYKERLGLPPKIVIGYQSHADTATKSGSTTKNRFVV
Chain of Nonstructural protein 1 (Q194T2 whole entry): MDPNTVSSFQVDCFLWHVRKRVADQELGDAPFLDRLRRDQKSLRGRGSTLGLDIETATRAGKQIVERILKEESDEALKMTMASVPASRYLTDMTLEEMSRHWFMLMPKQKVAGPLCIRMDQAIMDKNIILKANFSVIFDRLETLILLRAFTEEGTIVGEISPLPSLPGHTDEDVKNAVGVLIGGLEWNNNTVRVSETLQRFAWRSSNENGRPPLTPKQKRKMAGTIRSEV
Chain of Induced myeloid leukemia cell differentiation protein Mcl-1 (Q07820 whole entry): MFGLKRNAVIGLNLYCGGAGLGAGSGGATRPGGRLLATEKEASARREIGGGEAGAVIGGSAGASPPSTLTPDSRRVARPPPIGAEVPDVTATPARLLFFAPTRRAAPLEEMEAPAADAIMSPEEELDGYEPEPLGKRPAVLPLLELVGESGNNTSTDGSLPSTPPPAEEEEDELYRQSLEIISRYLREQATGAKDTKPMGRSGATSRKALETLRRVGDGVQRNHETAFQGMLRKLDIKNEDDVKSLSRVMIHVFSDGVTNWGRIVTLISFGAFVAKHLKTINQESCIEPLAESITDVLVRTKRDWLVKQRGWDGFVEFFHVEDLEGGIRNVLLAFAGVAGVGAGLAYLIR
Chain of Bcl-2-like protein 1 (Q07817 whole entry): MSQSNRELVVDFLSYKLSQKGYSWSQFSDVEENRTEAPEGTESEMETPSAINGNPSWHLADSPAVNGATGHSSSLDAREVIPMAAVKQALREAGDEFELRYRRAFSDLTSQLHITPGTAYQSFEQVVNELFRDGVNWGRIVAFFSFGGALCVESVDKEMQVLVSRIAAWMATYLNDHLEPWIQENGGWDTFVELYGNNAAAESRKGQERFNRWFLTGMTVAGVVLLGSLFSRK
Chain of Tyrosine-protein phosphatase non-receptor type 12 (Q05209 whole entry): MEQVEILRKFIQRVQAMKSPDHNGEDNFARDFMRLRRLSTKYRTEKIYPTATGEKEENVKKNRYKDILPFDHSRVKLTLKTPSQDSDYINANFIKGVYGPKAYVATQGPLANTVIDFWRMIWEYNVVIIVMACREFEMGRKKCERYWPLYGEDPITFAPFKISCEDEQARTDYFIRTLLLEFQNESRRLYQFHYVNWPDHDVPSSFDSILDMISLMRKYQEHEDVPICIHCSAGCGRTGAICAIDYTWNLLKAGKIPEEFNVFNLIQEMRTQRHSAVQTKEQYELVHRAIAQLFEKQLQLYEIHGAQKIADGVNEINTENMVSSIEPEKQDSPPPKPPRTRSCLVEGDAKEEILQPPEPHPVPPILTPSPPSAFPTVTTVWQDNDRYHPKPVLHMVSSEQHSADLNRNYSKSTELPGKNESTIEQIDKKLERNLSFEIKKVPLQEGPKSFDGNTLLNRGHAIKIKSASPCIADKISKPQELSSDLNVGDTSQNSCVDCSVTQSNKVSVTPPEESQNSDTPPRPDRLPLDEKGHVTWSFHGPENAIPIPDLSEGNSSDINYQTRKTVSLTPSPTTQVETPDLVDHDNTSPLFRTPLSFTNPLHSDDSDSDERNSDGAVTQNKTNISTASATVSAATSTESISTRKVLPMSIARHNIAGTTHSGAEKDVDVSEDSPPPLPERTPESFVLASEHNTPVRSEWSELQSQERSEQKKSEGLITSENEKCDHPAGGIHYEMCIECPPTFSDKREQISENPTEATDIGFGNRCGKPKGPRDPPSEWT

SMILES: Cc1c(Cl)cccc1NS(=O)(=O)c1ccc2c(c1)C1C=CCC1C(c1ccc(C(=O)O)cc1)N2 (centres undefined)
- IC50 [1]: 15.8 µM (active)
- IC50 [2]: 19.6 µM (active)
- IC50 [3]: 23.6 µM (inactive)
- IC50 [4]: 39.9 µM (active)
- IC50 [5]: 37.5 µM (active)
- IC50 [6]: 2.36 µM (active)
- IC50 [7]: 6.54 µM (active)
- IC50 [8]: 12.6 µM (active)
- IC50 [9]: 5.02 µM (active)
- IC50 (SUMO E1/E2): 26.9 µM (active)
- IC50 (Genome polyprotein): 62.2 µM (active)
- IC50 (Bcl-2-like protein 1): 50.8 µM (not active)
- IC50 (Nonstructural protein 1): 82.4 µM (active)
- IC50 [10]: 5.02 µM (active)
- IC50 [11]: 48.5 µM (active)
- IC50 [12]: 49.8 µM (active)
- IC50 [13]: 20.8 µM (active)
- IC50 [14]: 5.38 µM (active)
- IC50 [15]: 3.93 µM (active)
- IC50 [16]: 14.2 µM (active)
- IC50 [17]: > 100 µM (inactive)
- IC50 [18]: 47.4 µM (active)
- IC50 [19]: 45 µM (active)
- IC50 [20]: 43.7 µM (active)
